Source: ChEMBL document CHEMBL4715876 (J Med Chem, 2020)
≈ marks a conversion by molar mass, not a printed value. Values belong to the compound of their own block, whether it stands above or below them.

Key:
[1] = Free drug concentration in CB.17 SCID mouse xenografted with TMD-8 cells at 30 mg/kg, po once daily for 19 days; format: ADME, organism-based; details: in vivo, 456 h, time 19 day
[2] = Plasma concentration in CB.17 SCID mouse xenografted with OCI-LY10 cells at 1 mg/kg, po once daily for 24 days; format: ADME, organism-based; details: time 24 day
[3] = Drug uptake in CB.17 SCID mouse tumor xenografted with OCI-LY10 cells at 30 mg/kg, po once daily for 24 days; format: ADME, organism-based, Neoplasm; details: time 24 day, read-out: Drug uptake
[4] = Cmax in BALB/C mouse at 10 mg/kg,po measured upto 24 hrs by LC-MS analysis; format: ADME, organism-based; design: route oral, dose 10 mg/kg, time <= 24; details: in vivo
[5] = Free drug concentration in CB.17 SCID mouse xenografted with OCI-LY10 cells at 30 mg/kg, po once daily for 24 days; format: ADME, organism-based; details: in vivo, 576 h, time 24 day
[6] = Plasma concentration in CB.17 SCID mouse xenografted with OCI-LY10 cells at 10 mg/kg, po once daily for 24 days; format: ADME, organism-based; details: time 24 day
[7] = Drug uptake in CB.17 SCID mouse tumor xenografted with OCI-LY10 cells at 3 mg/kg, po once daily for 24 days; format: ADME, organism-based, Neoplasm; details: time 24 day, read-out: Drug uptake
[8] = Volume of distribution at steady state in Sprague-Dawley rat at 1 mg/kg, iv measured upto 24 hrs by LC-MS/MS analysis; format: ADME, organism-based; details: in vivo, read-out: Vdss
[9] = Drug uptake in CB.17 SCID mouse tumor xenografted with SUDHL-6 cells assessed as effect on body weight at 5 mg/kg, po once daily for 15 days; format: ADME, organism-based, Neoplasm; details: time 15 day, read-out: Drug uptake
[10] = Tmax in Sprague-Dawley rat at 10 mg/kg, po measured upto 24 hrs by LC-MS/MS analysis; format: ADME, organism-based; details: in vivo
[11] = Cmax in Sprague-Dawley rat at 1 mg/kg, iv measured upto 24 hrs by LC-MS/MS analysis; format: ADME, organism-based; design: route intravenous, dose 1 mg/kg, time <=24; details: in vivo
[12] = Cmax in Sprague-Dawley rat at 10 mg/kg, po measured upto 24 hrs by LC-MS/MS analysis; format: ADME, organism-based; design: route oral, dose 10 mg/kg, time <=24; details: in vivo
[13] = Drug uptake in CB.17 SCID mouse tumor xenografted with TMD-8 cells at 10 mg/kg, po once daily for 19 days; format: ADME, organism-based, Neoplasm; details: time 19 day, read-out: Drug uptake
[14] = Lipophilicity, log D of compound at pH 7.4; format: physicochemical; details: buffer
[15] = Plasma concentration in CB.17 SCID mouse xenografted with OCI-LY10 cells at 30 mg/kg, po once daily for 24 days; format: ADME, organism-based; details: time 24 day
[16] = Drug uptake in CB.17 SCID mouse tumor xenografted with OCI-LY10 cells at 1 mg/kg, po once daily for 24 days; format: ADME, organism-based, Neoplasm; details: time 24 day, read-out: Drug uptake
[17] = AUClast in BALB/C mouse at 10 mg/kg,po measured upto 24 hrs by LC-MS analysis; format: ADME, organism-based; design: route oral, dose 10 mg/kg, time <= 24; details: in vivo
[18] = Plasma concentration in CB.17 SCID mouse tumor xenografted with SUDHL-6 cells assessed as effect on body weight at 5 mg/kg, po once daily for 15 days; format: ADME, organism-based; details: time 15 day
[19] = Oral bioavailability in BALB/C mouse at 10 mg/kg measured upto 24 hrs by LC-MS analysis; format: ADME, organism-based; details: in vivo
[20] = Plasma concentration in CB.17 SCID mouse xenografted with TMD-8 cells at 1 mg/kg, po once daily for 19 days; format: ADME, organism-based; details: time 19 day
[21] = AUClast in Sprague-Dawley rat at 10 mg/kg, po measured upto 24 hrs by LC-MS/MS analysis; format: ADME, organism-based; design: route oral, dose 10 mg/kg, time <=24; details: in vivo
[22] = AUClast in Sprague-Dawley rat at 1 mg/kg, iv measured upto 24 hrs by LC-MS/MS analysis; format: ADME, organism-based; design: route intravenous, dose 1 mg/kg, time <=24; details: in vivo
[23] = Oral bioavailability in Sprague-Dawley rat at 10 mg/kg measured upto 24 hrs by LC-MS/MS analysis; format: ADME, organism-based; details: in vivo
[24] = Plasma concentration in CB.17 SCID mouse xenografted with TMD-8 cells at 10 mg/kg, po once daily for 19 days; format: ADME, organism-based; details: time 19 day
[25] = Drug uptake in CB.17 SCID mouse xenografted with TMD-8 cells tumor at 30 mg/kg, po once daily for 19 days; format: ADME, organism-based, Neoplasm; details: time 19 day, read-out: Drug uptake
[26] = Plasma concentration in CB.17 SCID mouse xenografted with TMD-8 cells at 30 mg/kg, po once daily for 19 days; format: ADME, organism-based; details: time 19 day
[27] = AUClast in BALB/C mouse at 1 mg/kg, iv measured upto 24 hrs by LC-MS analysis; format: ADME, organism-based; design: route intravenous, dose 1 mg/kg, time <= 24; details: in vivo
[28] = Drug uptake in CB.17 SCID mouse tumor xenografted with OCI-LY10 cells at 10 mg/kg, po once daily for 24 days; format: ADME, organism-based, Neoplasm; details: time 24 day, read-out: Drug uptake
[29] = Drug uptake in CB.17 SCID mouse tumor xenografted with TMD-8 cells at 1 mg/kg, po once daily for 19 days; format: ADME, organism-based, Neoplasm; details: time 19 day, read-out: Drug uptake
[30] = Drug uptake in CB.17 SCID mouse tumor xenografted with TMD-8 cells at 3 mg/kg, po once daily for 19 days; format: ADME, organism-based, Neoplasm; details: time 19 day, read-out: Drug uptake
[31] = Tmax in Sprague-Dawley rat at 1 mg/kg, iv measured upto 24 hrs by LC-MS/MS analysis; format: ADME, organism-based; details: in vivo
[32] = Solubility of the compound; format: physicochemical
[33] = Tmax in BALB/C mouse at 1 mg/kg, iv measured upto 24 hrs by LC-MS analysis; format: ADME, organism-based; details: in vivo
[34] = Volume of distribution at steady state in BALB/C mouse at 1 mg/kg, iv measured upto 24 hrs by LC-MS analysis; format: ADME, organism-based; details: in vivo, read-out: Vdss
[35] = Plasma concentration in CB.17 SCID mouse xenografted with OCI-LY10 cells at 3 mg/kg, po once daily for 24 days; format: ADME, organism-based; details: time 24 day
[36] = Cmax in BALB/C mouse at 1 mg/kg, iv measured upto 24 hrs by LC-MS analysis; format: ADME, organism-based; design: route intravenous, dose 1 mg/kg, time <= 24; details: in vivo
[37] = Plasma concentration in CB.17 SCID mouse xenografted with TMD-8 cells at 3 mg/kg, po once daily for 19 days; format: ADME, organism-based; details: time 19 day
[38] = Volume of distribution at steady state in Beagle dog at 1 mg/kg, iv measured upto 24 hrs by LC-MS/MS analysis; format: ADME, organism-based, Canis lupus familiaris; details: beagle, in vivo, read-out: Vdss
[39] = Tmax in BALB/C mouse at 10 mg/kg, po measured upto 24 hrs by LC-MS analysis; format: ADME, organism-based; details: in vivo
[40] = AUClast in BALB/C mouse at 10 mg/kg, iv measured upto 24 hrs by LC-MS analysis; format: ADME, organism-based; design: route intravenous, dose 10 mg/kg, time <= 24; details: in vivo
[41] = Volume of distribution at steady state in Sprague-Dawley rat at 3 mg/kg, iv measured upto 24 hrs by LC-MS/MS analysis; format: ADME, organism-based; details: in vivo, read-out: Vdss
[42] = Tmax in BALB/C mouse at 30 mg/kg, po measured upto 24 hrs by LC-MS analysis; format: ADME, organism-based; details: in vivo
[43] = Oral bioavailability in BALB/C mouse at 30 mg/kg measured upto 24 hrs by LC-MS analysis; format: ADME, organism-based; details: in vivo
[44] = Cmax in Beagle dog at 1 mg/kg, po measured upto 24 hrs by LC-MS/MS analysis; format: ADME, organism-based, Canis lupus familiaris; design: route oral, dose 1 mg/kg, time <=24; details: in vivo
[45] = Tmax in Beagle dog at 1 mg/kg, po measured upto 24 hrs by LC-MS/MS analysis; format: ADME, organism-based, Canis lupus familiaris; details: in vivo
[46] = Cmax in Sprague-Dawley rat at 3 mg/kg, po measured upto 24 hrs by LC-MS/MS analysis; format: ADME, organism-based; design: route oral, dose 3 mg/kg, time <=24; details: in vivo
[47] = Tmax in Sprague-Dawley rat at 3 mg/kg, iv measured upto 24 hrs by LC-MS/MS analysis; format: ADME, organism-based; details: in vivo
in vivo = details: BALB/C, mouse, po, 30 mg/kg
[48] = Volume of distribution at steady state in BALB/C mouse at 10 mg/kg, iv measured upto 24 hrs by LC-MS analysis; format: ADME, organism-based; details: in vivo, read-out: Vdss
[49] = Tmax in Sprague-Dawley rat at 3 mg/kg, po measured upto 24 hrs by LC-MS/MS analysis; format: ADME, organism-based; details: in vivo
[50] = Cmax in BALB/C mouse at 30 mg/kg,po measured upto 24 hrs by LC-MS analysis; format: ADME, organism-based; design: route oral, dose 30 mg/kg, time <= 24; details: in vivo
[51] = Oral bioavailability in Beagle dog at 1 mg/kg measured upto 24 hrs by LC-MS/MS analysis; format: ADME, organism-based, Canis lupus familiaris; details: in vivo
[52] = Tmax in Beagle dog at 1 mg/kg, iv measured upto 24 hrs by LC-MS/MS analysis; format: ADME, organism-based, Canis lupus familiaris; details: in vivo
[53] = Cmax in Sprague-Dawley rat at 3 mg/kg, iv measured upto 24 hrs by LC-MS/MS analysis; format: ADME, organism-based; design: route intravenous, dose 3 mg/kg, time <=24; details: in vivo

SMILES: Cc1nc(N)nc(N[C@@H](C)c2c(-c3ccccc3)c(=O)n3cc(F)ccc3c2-c2ccc(F)cc2)c1C#N
logD [14]: 3.26
solubility [32]: 44.9 µM (≈ 22.9 µg/mL)

SMILES: CC[C@H](Nc1ncnc2[nH]cnc12)c1nc2cccc(F)c2c(=O)n1-c1ccccc1 [IDELALISIB]
concentration at 576 h [7]: 0.15 µM
concentration at 360 h [9]: 0.08 µM
AUC(0-t) at 24 h [40]: 7.43 µM·h
Vd [41]: 2.49 L/kg
Tmax [42]: 15 min
bioavailability [43]: 37.6%
Cmax [44]: 0.5 µM
concentration at 360 h [18]: 0.03 µM
Tmax [45]: 60 min
Cmax [46]: 0.31 µM
Tmax [47]: 4.8 min
AUC(0-t) at 24 h (in vivo): 9.25 µM·h
Vd [48]: 0.73 L/kg
Tmax [49]: 180 min
Cmax [50]: 6.98 µM
bioavailability [51]: 48%
Tmax [52]: 4.8 min
concentration at 456 h [30]: 0.14 µM
Cmax [53]: 3.46 µM
concentration at 576 h [35]: 0.04 µM
concentration at 456 h [37]: 0.02 µM

SMILES: C[C@H](Nc1nc(N)nc(N)c1C#N)c1c(-c2ccccc2)c(=O)n2cc(F)ccc2c1C1CC1
Cmax [4]: 1.3 µM
AUC(0-t) at 24 h [17]: 2.4 µM·h
bioavailability [19]: 16%
AUC(0-t) at 24 h [27]: 1.5 µM·h
Tmax [33]: 4.8 min
Vd [34]: 1.8 L/kg
Cmax [36]: 1.4 µM
Tmax [39]: 60 min

The next lines start with results.

Drug uptake(free) [1]: 166.1 nM
concentration at 576 h [2]: 0.18 µM
concentration at 576 h [3]: 3.25 µM
Cmax [4]: 7.5 µM
Drug uptake(free) [5]: 157.6 nM
concentration at 576 h [6]: 1.72 µM
concentration at 576 h [7]: 0.38 µM
Vd [8]: 1 L/kg
Tmax [10]: 120 min
Cmax [11]: 1.7 µM
Cmax [12]: 4.8 µM
concentration at 456 h [13]: 1.65 µM
logD [14]: 2.38
concentration at 576 h [15]: 5.22 µM
concentration at 576 h [16]: 0.13 µM
AUC(0-t) at 24 h [17]: 22 µM·h
bioavailability [19]: 39%
concentration at 456 h [20]: 0.21 µM
AUC(0-t) at 24 h [21]: 36 µM·h
AUC(0-t) at 24 h [22]: 11 µM·h
bioavailability [23]: 33%
concentration at 456 h [24]: 2.67 µM
concentration at 456 h [25]: 4.08 µM
concentration at 456 h [26]: 5.5 µM
AUC(0-t) at 24 h [27]: 5.7 µM·h
concentration at 576 h [28]: 0.96 µM
concentration at 456 h [29]: 0.17 µM
concentration at 456 h [30]: 0.63 µM
Tmax [31]: 4.8 min
solubility [32]: 68.5 µM (≈ 34.9 µg/mL)
Tmax [33]: 4.8 min
Vd [34]: 0.7 L/kg
concentration at 576 h [35]: 0.71 µM
Cmax [36]: 2.3 µM
concentration at 456 h [37]: 0.7 µM
Vd [38]: 0.4 L/kg
Tmax [39]: 60 min
SMILES: C[C@H](Nc1nc(N)nc(N)c1C#N)c1c(-c2ccccc2)c(=O)n2cc(F)ccc2c1-c1ccc(F)cc1
concentration at 360 h [9]: 0.2 µM
concentration at 360 h [18]: 0.38 µM

Cmax [4]: 2.1 µM
AUC(0-t) at 24 h [17]: 2.4 µM·h
bioavailability [19]: 30%
AUC(0-t) at 24 h [27]: 0.8 µM·h
Tmax [33]: 4.8 min
Vd [34]: 1.7 L/kg
Cmax [36]: 1.3 µM
Tmax [39]: 30 min
SMILES: Cc1c([C@H](C)Nc2nc(N)nc(N)c2C#N)c(-c2ccccc2)c(=O)n2cc(F)ccc12
